Reference: BindingDB's records for doi:10.1016/s0960-894x(01)00493-0 (National Cancer Institute-Frederick, 2001)

Target: Urokinase-type plasminogen activator (Homo sapiens) (UniProt P00749)
Assay: Compound was tested for microPa) Urokinase-type plasminogen activator from human urine

- Ki: 500 µM
Structure (SMILES): CC[C@H](C)[C@@H]1NC(=O)[C@@H]2CCCN2C(=O)[C@@H]2CCCN2C(=O)[C@H]([C@@H](C)CC)NC(=O)[C@H](CO)NC(=O)[C@H](CCCCN)NC(=O)[C@H]([C@@H](C)O)NC(=O)[C@@H]2CSSC[C@H](NC1=O)C(=O)N[C@@H](Cc1ccccc1)C(=O)N1CCC[C@H]1C(=O)N[C@@H](CC(=O)O)C(=O)NCC(=O)N[C@@H](CCCNC(=N)N)C(=O)N2
